Measured values from EPA's ToxValDB 9.5 (doi:10.2903/j.efsa.2014.3801).
Values joined by “and” are separate entries in the source; they are usually repeats but may differ in a detail not shown here. Equal entries are not always repeated.

What was measured:
Anas platyrhynchos = details: reproductive
Apis mellifera = details: acute, mortality
Colinus virginianus = details: acute, oral
Folsomia candida = details: chronic/long-term
Oncorhynchus mykiss = details: for LC50: acute, duration: 96 hours, mortality; for NOEC: chronic/long-term
Rattus norvegicus = details: for LD50: acute; for NOAEL: reproduction developmental
Tagia sp. = details: for LC50: acute, mortality
Typhlodromus pyri = experiment: LR50; higher = less toxic; details: acute; duration: 14 days; mortality
Daphnia magna = details: chronic/long-term; duration: 21 days

| SMILES | NOAEL (Anas platyrhynchos) [mg/kg] | LD50 (Apis mellifera; dermal) [µg/piece] | LD50 (Apis mellifera; oral, unspecified) [µg/piece] | LD50 (Colinus virginianus) [mg/kg] | LC50 (Colinus virginianus; diet) [mg/kg] | NOEC (Folsomia candida) [mg/kg] | LC50 (Oncorhynchus mykiss) | LD50 (Rattus norvegicus; oral, mortality) [mg/kg] | NOAEL (Rattus norvegicus) [mg/kg-day] | NOAEL (Rattus norvegicus; body weight) [mg/kg-day] | NOAEL (Rattus norvegicus; organ weight) [mg/kg-day] | LC50 (Tagia sp.) [mg/kg] | LR50 (Typhlodromus pyri) [g/ha] | NOEC (Daphnia magna) [mg/L] | NOEC (Oncorhynchus mykiss; duration: 21 days) [mg/L] | NOEC (Oncorhynchus mykiss; duration: 69 days, other) [mg/L] | LD50 (Rattus norvegicus; F) [mg/kg] | NOEC (Tagia sp.; chronic/long-term) [mg/kg] |
| --- | --- | --- | --- | --- | --- | --- | --- | --- | --- | --- | --- | --- | --- | --- | --- | --- | --- | --- |
| CCCCCCCCSC(=O)Oc1cc(Cl)nnc1-c1ccccc1 [Pyridate] | 100 | > 100 | > 110 | 1270 | > 1250 | 112 | > 1.01 µg/mL and 1.19 µg/mL | > 2000 | 18.8 | 165 | 3.6 | 400 | > 1360 | – | – | – | – | – |
| O=c1cc(Cl)[nH]nc1-c1ccccc1 [Pyridafol] | – | – | – | – | – | – | > 16.2 µg/mL | – | – | – | – | 348 | – | 5 | > 17 | 0.1 | 1420 | 3.25 |
